Data published in patent US11434242B2, “Dopamine-b-hydroxylase inhibitors” (BIAL-PORTELA & Cª, S.A., priority 2017, dated 2022).

Biological target: T1, Dopamine beta hydroxylase (Homo sapiens, UniProt P09172)
T1 construct: 125 μl of plasma; tissue Instituto Português do Sangue Transplantação; host or cells: human plasma from healthy donors
T1 sequence (P09172 40-617 limits assumed): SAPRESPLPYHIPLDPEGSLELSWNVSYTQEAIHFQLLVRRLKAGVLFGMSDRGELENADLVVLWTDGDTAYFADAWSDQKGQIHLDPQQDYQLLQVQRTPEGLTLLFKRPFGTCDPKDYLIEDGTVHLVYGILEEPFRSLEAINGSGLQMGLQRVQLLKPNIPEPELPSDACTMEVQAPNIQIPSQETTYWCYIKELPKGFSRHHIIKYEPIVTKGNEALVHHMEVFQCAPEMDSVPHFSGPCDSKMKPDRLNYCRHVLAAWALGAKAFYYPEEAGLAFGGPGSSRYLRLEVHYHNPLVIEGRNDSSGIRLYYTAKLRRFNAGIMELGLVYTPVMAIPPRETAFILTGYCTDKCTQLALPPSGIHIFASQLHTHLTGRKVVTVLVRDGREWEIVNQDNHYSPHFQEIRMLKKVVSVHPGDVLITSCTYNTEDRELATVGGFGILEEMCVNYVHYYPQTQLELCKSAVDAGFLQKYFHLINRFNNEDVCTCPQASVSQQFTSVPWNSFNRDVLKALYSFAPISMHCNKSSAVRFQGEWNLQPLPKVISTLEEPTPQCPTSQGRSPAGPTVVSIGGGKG
Assay: Dopamine beta hydroxylase activity in human plasma
Format: biochemical
Settings: for Plasma (0.01 μM), activity in % of control: inhibitor 0.01 μM; for Plasma (0.1 μM), activity in % of control: inhibitor 0.1 μM; for Plasma (1 μM), activity in % of control: inhibitor 1 μM
Protocol: Furthermore, the ability of a compound to inhibit DβH activity may be assessed in human plasma using the following assay. […]. Dopamine beta hydroxylase activity in human plasma was measured by the method of Nagatsu and Udenfriend (Nagatsu, T. and Udenfriend, S. “Photometric assay of dopamine-μ-hydroxylase activity in human blood.” Clin. Chem. 18(9) 980-983, 1972) with minor modifications. Catalase, N-ethylmaleimide, tyramine, disodium fumarate, pargyline, sodium acetate, ascorbic acid, copper sulfate and octopamine were obtained from Sigma Chemical Co., St. Louis, Mo. 63178. Human plasma samples were obtained from healthy donors (Instituto Português do Sangue Transplantação, Centro Sangue Transplantação, Porto, Portugal). From date of collection, plasma was stored at −80° C. until use. Test compounds were initially prepared in dimethyl sulfoxide at a concentration of 10 mM and diluted in dimethyl sulfoxide to the required concentrations. Test compounds were further diluted in ultrapure water to a concentration 20-fold to that of the final concentration to be tested. Final concentrations of test compounds were 10, 100 and 1000 nM. The various reagents used to make up the incubation buffer were premixed and consisted of the following components: sodium acetate buffer (1 M, pH 5.0, 18 ml), sodium fumarate (0.2 M, 4.5 ml), ascorbic acid (0.2 M, 4.5 ml, freshly prepared), pargyline (20 mM, freshly prepared, 4.5 ml), N-ethylmaleimide (0.2 M, 4.5 ml), catalase (10 000 U/ml, 9 ml), copper sulfate (20 μM, 4.5 ml) and 4.5 ultrapure water. The standard incubation mixture (total volume, 950 μl) contained: 50 μL of compound or vehicle (dimethyl sulfoxide 2%); 700 μL of incubation buffer; 125 μl of plasma (or saline for blank reaction or standard curve); 75 μl of saline. The reaction mixture was placed in water bath, shaking at 37° C. and pre-incubated for 10 minutes. Tyramine (0.5 M) was added and incubation proceeded for 45 minutes. The reaction contents were exposed to air. A sample of enzyme preparation (with 125 μl of plasma) that had been added perchloric acid 2 M at the end of the pre-incubation period was used as blank. A blank for each of the tested compounds was used. For octopamine standard curve, perchloric acid 2 M was replaced by increasing concentrations of octopamine prepared in perchloric acid 2 M (0.5, 1, 2.5, 5, 7.5, 10, 15, 20 μg/ml, final concentration). The incubation was stopped by adding 200 μl of 2 M molar perchloric acid, and the mixture was centrifuged at 9000 g for 5 min. The supernatant fluid (800 μL) was transferred to a column (SPE cartridge ISOLUTE SCX-3, 100 mg) and centrifuged at 150 g for 2 min. The column was washed two more times with 0.5 ml of ultrapure water by centrifuging at 150 g for 2 min. The adsorbed octopamine was eluted twice with 0.3 ml of 4 M ammonium hydroxide by centrifuging at 150 g for 2 min. Octopamine in the eluate was then converted to p-hydroxybenzaldehyde by adding 200 μl of sodium periodate (2%) and incubating for 6 min. Excess periodate was than reduced by adding 200 μl of sodium metabisulfite (10%). Absorbance was measured at […] in a 96-well plate by use of a SpectraMAX plus 384 (Molecular Devices) with software SOFTmax® PRO Software 5.3 spectrophotometer. Absorbance was linear with octopamine concentration from 0.5 to 20 μg/ml. Dopamine beta hydroxylase activity is determined as nmol of octopamine formed/ml of plasma/hour and effect of compounds is presented as % control.
Results are reported in the table below as activity in % of control at the inhibitor concentration tested.

Compound	Plasma (0.01 μM), activity in % of control	Plasma (0.1 μM), activity in % of control	Plasma (1 μM), activity in % of control
Cl.Cn1c(CC(=O)Nc2ccncc2)c2n(c1=S)C[C@H](c1c(F)ccc(Cl)c1F)C2 [Example 287, (S)-2-(6-(3-chloro-2,6-difluorophenyl)-2-methyl-3-thioxo-2,5,6,7-tetrahydro-3H-pyrrolo[1,2-c]imidazol-1-yl)-N-(pyridin-4-yl)acetamide Hydrochloride]	66.8 % of control	15.5 % of control	–
F.Fc1ccc(Br)cc1[C@]12C[C@H]1c1c(CCNC3CCC3)[nH]c(=S)n1C2 [Example 188, (5aS,6aR)-5a-(5-bromo-2-fluorophenyl)-1-(2-(cyclobutylamino)ethyl)-5,5a,6,6a-tetrahydrocyclopropa[3,4]pyrrolo[1,2-c]imidazole-3(2H)-thione hydrofluoride]	60.9 % of control	15.4 % of control	–
O=C(Cc1[nH]c(=S)n2c1C[C@@H](c1c(F)ccc(Cl)c1F)C2)Nc1nncs1 [Example 168, (S)-2-(6-(3-chloro-2,6-difluorophenyl)-3-thioxo-2,5,6,7-tetrahydro-3H-pyrrolo[1,2-c]imidazol-1-yl)-N-(1,3,4-thiadiazol-2-yl)acetamide]	51.9 % of control	10.5 % of control	–
Cn1c(CC(=O)N2CCOCC2)c2n(c1=S)C[C@@H](c1c(F)c(F)cc(F)c1F)C2 [Example 242, (R)-2-(2-methyl-6-(2,3,5,6-tetrafluorophenyl)-3-thioxo-2,5,6,7-tetrahydro-3H-pyrrolo[1,2-c]imidazol-1-yl)-1-morpholinoethan-1-one]	91.5 % of control	53.6 % of control	–
Cn1c(CCC(=O)NCC#N)c2n(c1=S)C[C@@H](c1c(F)ccc(F)c1F)C2 [Example 270, (R)—N-(cyanomethyl)-3-(2-methyl-3-thioxo-6-(2,3,6-trifluorophenyl)-2,5,6,7-tetrahydro-3H-pyrrolo[1,2-c]imidazol-1-yl)propanamide]	88.1 % of control	53.8 % of control	–
CCCCN(C)C(=O)Cc1[nH]c(=S)n2c1C[C@@H](c1c(F)ccc(Br)c1F)C2 [Example 92, (S)-2-(6-(3-bromo-2,6-difluorophenyl)-3-thioxo-2,5,6,7-tetrahydro-3H-pyrrolo[1,2-c]imidazol-1-yl)-N-butyl-N-methylacetamide]	–	37.5 % of control	0.1 % of control
Cn1c(CC(N)=O)c2n(c1=S)C[C@H](c1c(F)ccc(Cl)c1F)C2 [Example 249, (S)-2-(6-(3-chloro-2,6-difluorophenyl)-2-methyl-3-thioxo-2,5,6,7-tetrahydro-3H-pyrrolo[1,2-c]imidazol-1-yl)acetamide]	96.0 % of control	40.9 % of control	–
O=C(Cc1[nH]c(=S)n2c1C[C@H](c1c(F)c(F)cc(F)c1F)C2)NCCO [Example 72, (R)—N-(2-hydroxyethyl)-2-(6-(2,3,5,6-tetrafluorophenyl)-3-thioxo-2,5,6,7-tetrahydro-3H-pyrrolo[1,2-c]imidazol-1-yl)acetamide]	–	90.8 % of control	28.9 % of control

The next lines start with the values.

Plasma (0.01 μM), activity in % of control	Plasma (0.1 μM), activity in % of control	Plasma (1 μM), activity in % of control	Compound
67.9 % of control	16.5 % of control	–	Cn1c(CCC(=O)N2CC3C(C2)C3(C)C)c2n(c1=S)C[C@@H](c1c(F)c(F)cc(F)c1F)C2 (stereo partly drawn) [Example 319, 1-(6,6-dimethyl-3-azabicyclo[3.1.0]hexan-3-yl)-3-((R)-2-methyl-6-(2,3,5,6-tetrafluorophenyl)-3-thioxo-2,5,6,7-tetrahydro-3H-pyrrolo[1,2-c]imidazol-1-yl)propan-1-one]
79.9 % of control	24.1 % of control	–	Cn1c(CC(=O)NCC2CCOCC2)c2n(c1=S)C[C@@H](c1c(F)c(F)cc(F)c1F)C2 [Example 397, (R)-2-(2-methyl-6-(2,3,5,6-tetrafluorophenyl)-3-thioxo-2,5,6,7-tetrahydro-3H-pyrrolo[1,2-c]imidazol-1-yl)-N-((tetrahydro-2H-pyran-4-yl)methyl)acetamide]
46.7 % of control	5.1 % of control	–	Fc1ccc(F)c([C@H]2Cc3c(CCCN4CCCC4)[nH]c(=S)n3C2)c1F [Example 478, (R)-1-(3-(pyrrolidin-1-yl)propyl)-6-(2,3,6-trifluorophenyl)-2,5,6,7-tetrahydro-3H-pyrrolo[1,2-c]imidazole-3-thione hydrofluoride]
65.9 % of control	22.3 % of control	–	Cn1c(CC(=O)N2CCCC2)c2n(c1=S)C[C@@]1(c3cc(Br)ccc3F)C[C@@H]21 [Example 310, 2-((5aS,6aR)-5a-(5-bromo-2-fluorophenyl)-2-methyl-3-thioxo-2,3,5,5a,6,6a-hexahydrocyclopropa[3,4]pyrrolo[1,2-c]imidazol-1-yl)-1-(pyrrolidin-1-yl)ethan-1-one]
40.8 % of control	10.9 % of control	–	Cn1c(CC(=O)NCC2CCOCC2)c2n(c1=S)C[C@H](c1c(F)ccc(Cl)c1F)C2 [Example 352, (S)-2-(6-(3-chloro-2,6-difluorophenyl)-2-methyl-3-thioxo-2,5,6,7-tetrahydro-3H-pyrrolo[1,2-c]imidazol-1-yl)-N-((tetrahydro-2H-pyran-4-yl)methyl)acetamide]
87.1 % of control	58.3 % of control	–	Cn1c(CC(=O)N[C@H]2CCOC2)c2n(c1=S)C[C@@H](c1c(F)ccc(F)c1F)C2 [Example 289, 2-((R)-2-methyl-3-thioxo-6-(2,3,6-trifluorophenyl)-2,5,6,7-tetrahydro-3H-pyrrolo[1,2-c]imidazol-1-yl)-N—((S)-tetrahydrofuran-3-yl)acetamide]
49.9 % of control	7.0 % of control	–	Cn1c(CC(=O)N[C@@H]2CCCOC2)c2n(c1=S)C[C@H](c1c(F)ccc(Cl)c1F)C2 [Example 327, 2-((S)-6-(3-chloro-2,6-difluorophenyl)-2-methyl-3-thioxo-2,5,6,7-tetrahydro-3H-pyrrolo[1,2-c]imidazol-1-yl)-N—((R)-tetrahydro-2H-pyran-3-yl)acetamide]
